Experimental data reported in ChEMBL document CHEMBL1125661, “2-Alkoxyadenosines: potent and selective agonists at the coronary artery A2 adenosine receptor” (J Med Chem, 1991).

Columns and labels:
[1] = target: T1, Adenosine receptor A1 (Cavia porcellus, UniProt P47745)
T1 sequence (P47745 whole entry): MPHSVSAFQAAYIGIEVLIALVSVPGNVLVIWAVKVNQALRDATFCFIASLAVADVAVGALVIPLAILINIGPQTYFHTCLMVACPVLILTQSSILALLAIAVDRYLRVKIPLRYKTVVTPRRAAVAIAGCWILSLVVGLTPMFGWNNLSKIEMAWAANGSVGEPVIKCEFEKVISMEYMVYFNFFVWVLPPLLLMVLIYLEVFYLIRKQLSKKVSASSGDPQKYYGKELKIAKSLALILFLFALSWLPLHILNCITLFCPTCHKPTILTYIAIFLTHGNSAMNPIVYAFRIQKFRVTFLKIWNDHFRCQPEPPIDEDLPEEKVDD
Description: Prolongation of the stimulus-QRS interval by 50% of the maximum response at the adenosine A1 receptor in langendorff guinea pig heart preparation

[2] = target: T2, Adenosine A2 receptor (Homo sapiens, UniProt P29275+P29274)
Description: Coronary arteries vasodilation at the adenosine A2 receptor in langendorff guinea pig heart preparation

[3] = target: T1, Adenosine receptor A1; test: Prolongation of the stimulus-QRS interval by 50% of the maximum response at the Adenosine A1 receptor in langendorff guinea pig heart preparation; assay type: functional
[4] = target: T2, Adenosine A2 receptor; remark: listed apart in the source
Description: Coronary arteries vasodilation at the Adenosine A2 receptor in langendorff guinea pig heart preparation

Row | SMILES | EC50 [1] [µM] | -Log EC50 [2] | EC50 [3] [µM] | -Log EC50 [4]
1 | COc1cc(OC)cc(C(CNc2ncnc3c2ncn3[C@@H]2O[C@H](CO)[C@@H](O)[C@H]2O)c2ccccc2C)c1 (stereo partly specified) | 5.62 | 9.35 | – | –
2 | Nc1nc(Cl)nc2c1ncn2[C@@H]1O[C@H](CO)[C@@H](O)[C@H]1O | 0.191 | 7.6 | – | –
3 | CC1(C)C2CCC(C(=O)CCOc3nc(N)c4ncn(C5O[C@@H](CO)[C@H](O)[C@@H]5O)c4n3)C1C2 (stereo partly specified) | – | – | 4.47 | 8.24
4 | CC#CCCOc1nc(N)c2ncn(C3O[C@@H](CO)[C@H](O)[C@@H]3O)c2n1 (stereo partly specified) | – | – | 63.1 | 7.56
5 | Nc1nc(OCCCCC2CCCCC2)nc2c1ncn2C1O[C@@H](CO)[C@H](O)[C@@H]1O (stereo partly specified) | – | – | 2.63 | 8.71
6 | CC(C)CCCOc1nc(N)c2ncn(C3O[C@@H](CO)[C@H](O)[C@@H]3O)c2n1 (stereo partly specified) | – | – | 22.9 | 8.45
7 | CC(C)CCOc1nc(N)c2ncn(C3O[C@@H](CO)[C@H](O)[C@@H]3O)c2n1 (stereo partly specified) | – | – | 66.1 | 7.61
8 | CCC(CC)CCOc1nc(N)c2ncn(C3O[C@@H](CO)[C@H](O)[C@@H]3O)c2n1 (stereo partly specified) | – | – | 15.8 | 7.8
9 | CCOc1nc(N)c2ncn(C3O[C@@H](CO)[C@H](O)[C@@H]3O)c2n1 (stereo partly specified) | – | – | 79.4 | 6.44
10 | Nc1nc(OCCC(=O)[C@H]2CC3CCC2C3)nc2c1ncn2C1O[C@@H](CO)[C@H](O)[C@@H]1O (stereo partly specified) | 8.71 | 8.35 | – | –
11 | Nc1nc(OCCCC2CCCCC2)nc2c1ncn2C1O[C@@H](CO)[C@H](O)[C@@H]1O (stereo partly specified) | 3.72 | 8.67 | – | –
12 | CCCCCOc1nc(N)c2ncn(C3O[C@@H](CO)[C@H](O)[C@@H]3O)c2n1 (stereo partly specified) | – | – | 45.7 | 7.94
13 | Nc1nc(OCC2CCCCC2)nc2c1ncn2C1O[C@@H](CO)[C@H](O)[C@@H]1O (stereo partly specified) | 50.1 | 6.75 | – | –
14 | CCC(C)Oc1nc(N)c2ncn(C3O[C@@H](CO)[C@H](O)[C@@H]3O)c2n1 (stereo partly specified) | – | – | 891 | 5.45
15 | Nc1nc(OCCC2CCCCC2)nc2c1ncn2C1O[C@@H](CO)[C@H](O)[C@@H]1O (stereo partly specified) | 8.71 | 8.99 | – | –
16 | CCCOc1nc(N)c2ncn(C3O[C@@H](CO)[C@H](O)[C@@H]3O)c2n1 (stereo partly specified) | – | – | 148 | 7.28
17 | CCNC(=O)[C@H]1O[C@@H](n2cnc3c(N)nc(NCCc4ccc(CCC(=O)O)cc4)nc32)[C@H](O)[C@@H]1O [CGS-21680] | – | – | 24.5 | –

The next lines start with the values.

Row | EC50 [1] [µM] | -Log EC50 [2] | EC50 [3] [µM] | -Log EC50 [4] | SMILES
18 | 12.6 | 7.74 | – | – | Nc1nc(Nc2ccccc2)nc2c1ncn2[C@@H]1O[C@H](CO)[C@@H](O)[C@H]1O
19 | – | – | 0.00537 | 7.08 | O=C(Nc1ncnc2c1ncn2[C@@H]1O[C@H](CO)[C@@H](O)[C@H]1O)[C@H]1C[C@H]2CC[C@@H]1C2
20 | 9.33 | 6.16 | – | – | COc1nc(N)c2ncn([C@H]3O[C@@H](CO)[C@H](O)[C@@H]3O)c2n1
21 | – | – | 79.4 | 7.04 | Nc1nc(OC2CCCC2)nc2c1ncn2[C@H]1O[C@@H](CO)[C@H](O)[C@@H]1O
22 | – | – | 37.2 | 7.28 | CCCCOc1nc(N)c2ncn(C3O[C@@H](CO)[C@H](O)[C@@H]3O)c2n1 (stereo partly specified)
23 | 14.1 | 8.41 | – | – | Nc1nc(OCCC2CCCC2)nc2c1ncn2C1O[C@@H](CO)[C@H](O)[C@@H]1O (stereo partly specified)
24 | – | – | 35.5 | 6.54 | CCC(CC)COc1nc(N)c2ncn(C3O[C@@H](CO)[C@H](O)[C@@H]3O)c2n1 (stereo partly specified)
25 | – | – | 224 | 5.86 | CC(C)Oc1nc(N)c2ncn(C3O[C@@H](CO)[C@H](O)[C@@H]3O)c2n1 (stereo partly specified)
26 | – | – | 107 | 7.15 | CC(C)COc1nc(N)c2ncn(C3O[C@@H](CO)[C@H](O)[C@@H]3O)c2n1 (stereo partly specified)
27 | – | – | 13.8 | 8.42 | CCCCCCOc1nc(N)c2ncn(C3O[C@@H](CO)[C@H](O)[C@@H]3O)c2n1 (stereo partly specified)
28 | – | – | 0.0339 | 7.88 | CC(C)N(c1ccccc1)c1ncnc2c1ncn2C1O[C@H](CO)[C@@H](O)[C@H]1O (stereo partly specified)
29 | – | – | 100 | 6.18 | Nc1nc(OC2CCCCC2)nc2c1ncn2C1O[C@@H](CO)[C@H](O)[C@@H]1O (stereo partly specified)
30 | – | – | 2.19 | 7.18 | Nc1nc(OCCO)nc2c1ncn2C1O[C@@H](CO)[C@H](O)[C@@H]1O (stereo partly specified)
31 | – | – | 1.15 | 7.1 | Nc1nc(=O)[nH]c2c1ncn2[C@@H]1O[C@H](CO)[C@@H](O)[C@H]1O [ISOGUANOSINE]
